# Test results taken from PMC10674894 (Viruses, 2023).
# Legend:
# [1] = system: Vero cells; test: Cytotoxicity MTT assay in Vero cells (MNTD, CC50); assay type: cell-based, African green monkey
# [2] = system: CHIKV DRDE-07; test: In vitro screening against CHIKV (CPE inhibition and MTT cell viability); assay type: cell-based, chikungunya virus; settings: for % Cell viability / CPE: Table S1, CHIKV-infected Vero cells; for % Cell viability / Cell Viability: 72 hpi; for % Cell viability: MTT assay; for CPE: arbitrary score of cytopathic effect at >48 hpi; for Cell Viability: CHIKV-infected Vero cells treated at MNTD, MTT, cell control + DMSO = 100%
# [3] = maximum nontoxic dose in Vero cells, MTT
SMILES,"MNTD ([1]; Table S1, Vero cells) [µM]",% Cell viability [2] [%],CPE [2],"MNTD [1, 3] [µM]",Cell Viability [2] [%]
"C#CCOC(=O)C1=C(C)NC(=O)NC1c1ccc(OCC)cc1 (centres unmarked) [DCR94, prop-2-yn-1-yl 4-(4-ethoxyphenyl)-6-methyl-2-oxo-1,2,3,4-tetrahydropyrimidine-5-carboxylate]",198.83,19.5,++++ (>60% (++++)),–,–
"Nc1nc(N)c2cc(F)c(F)cc2n1 [DCR 138, 6,7-difluoro-quinazoline-2,4-diamine]",250,–,++ (50-30% (++)),250,51
"CC1CN(c2ccc(C(=N)NO)c(Cl)c2)CC(C)N1 (centres unmarked) [DCR149, 2-Chloro-4-(3,5-dimethyl-piperazin-1-yl)-N-hydroxy-benzamidine]",125,-21.8,++++ (>60% (++++)),–,–
"C/C(=N\NC(=O)c1ccncc1)c1c(O)ccc2ccccc12 [DCR52, N'-[(1E)-1-(2-hydroxynaphthalen-1-yl)ethylidene]pyridine-4-carbohydrazide]",31.25,30.87,++++ (>60% (++++)),–,–
"O=C(NNC(=O)c1ccc(Cl)cc1)c1ccncc1 [DCR11, N'-(4-chlorobenzoyl)isonicotinohydrazide]",31.25,22.85,++++ (>60% (++++)),–,–
"Cc1ccc(/C=N/NC(=O)c2cccnc2)cc1 [DCR16, (E)-N'-(4-methylbenzylidene)nicotinohydrazide]",31.25,18.49,++++ (>60% (++++)),–,–
"CC1(C)CC(=O)C2=C(C1)OC1=C(C(=O)CC(C)(C)C1)C2c1ccc(C2C3=C(CC(C)(C)CC3=O)OC3=C2C(=O)CC(C)(C)C3)cc1 [DCR133, 3,3,6,6‐tetramethyl‐9‐[4‐(3,3,6,6‐tetramethyl‐1,8‐dioxo‐dodecahydro‐1H‐xanthen‐9‐yl)phenyl]‐2,3,4,5,6,7,8,9‐octahydro‐1H‐xanthene‐1,8‐dione]",125,11.14,++++ (>60% (++++)),–,–
"COc1ccc(C2NC(=O)NC(C)=C2C(=O)OCCc2ccccc2)cc1 (centres unmarked) [DCR97, 2-phenylethyl 4-(4-methoxyphenyl)-6-methyl-2-oxo-1,2,3,4-tetrahydropyrimidine-5-carboxylate]",170.57,11.19,++++ (>60% (++++)),–,–
"O=C1NC(c2cccc(Cl)c2)c2c(ccc3ccccc23)O1 (centres unmarked) [DCR67, 1-(3-chlorophenyl)-1H,2H,3H-naphtho[1,2-e][1,3]oxazin-3-one]",50.44,10.94,++++ (>60% (++++)),–,–
"CC1=C(C(=O)OCCN(C)C)C(c2ccc(O)cc2)NC(=O)N1 (centres unmarked) [DCR110, 2-(dimethylamino)ethyl 4-(4-hydroxyphenyl)-6-methyl-2-oxo-1,2,3,4-tetrahydropyrimidine-5-carboxylate]",62.5,12.01,++++ (>60% (++++)),–,–
"COc1cccc2nc(N)nc(N)c12 [DCR 139, 5-methoxy-quinazoline-2,4-diamine]",250,–,++ (50-30% (++)),250,57
"CCOc1ccc(-c2cc(-c3ccc(O)cc3)nn2C(=O)c2cccnc2)cc1OC [DCR58, 4-[5-(4-ethoxy-3-methoxyphenyl)-1-(pyridine-3-carbonyl)-1H-pyrazol-3-yl]phenol]",15.62,8.17,++++ (>60% (++++)),–,–
"CC(=O)Cc1noc(-c2ccncc2)n1 [DCR82, 1-[5-(pyridin-4-yl)-1,2,4-oxadiazol-3-yl]propan-2-one]",125,14.42,++++ (>60% (++++)),–,–
"COc1cc(-c2cc(-c3ccc(O)cc3)nn2C(=O)c2cccnc2)cc(OC)c1OC [DCR60, 4-[1-(pyridine-3-carbonyl)-5-(3,4,5-trimethoxyphenyl)-1H-pyrazol-3-yl]phenol]",31.25,-3.41,++++ (>60% (++++)),–,–
"O=C(N/N=C/c1cccc([N+](=O)[O-])c1)c1cccnc1 [DCR19, (E)-N'-(3-nitrobenzylidene)nicotinohydrazide]",62.5,20.39,++++ (>60% (++++)),–,–
"CCOc1ccc(/C=N/NC(=O)c2cccnc2)cc1OC [DCR17, (E)-N'-(4-ethoxy-3-methoxybenzylidene)nicotinohydrazide]",31.25,0.1,++++ (>60% (++++)),–,–
"O=C(N/N=C/c1ccc(Cl)cc1Cl)c1cccnc1 [DCR26, (E)-N'-(2,4-dichlorobenzylidene)nicotinohydrazide]",31.25,26.11,++++ (>60% (++++)),–,–
"CC(=O)Cc1noc(-c2ccc([N+](=O)[O-])cc2)n1 [DCR77, 1-[5-(4-nitrophenyl)-1,2,4-oxadiazol-3-yl]propan-2-one]",125,10.43,++++ (>60% (++++)),–,–
"N#Cc1ccc(N2CCN(CCO)CC2)cc1N1CCN(CCO)CC1 [DCR150, 2,4-Bis-[4-(2-hydroxy-ethyl)-piperazin-1-yl]-benzonitrile]",62.5,18.09,++++ (>60% (++++)),–,–
"O=C(N/N=C/c1ccco1)c1cccnc1 [DCR21, (E)-N'-(furan-2-ylmethylene)nicotinohydrazide]",62.5,0,++++ (>60% (++++)),–,–
"COc1ccc(C2NC(=O)NC(C)=C2C(=O)OCc2ccc(Cl)cc2)cc1 (centres unmarked) [DCR100, (4-chlorophenyl)methyl 4-(4-methoxyphenyl)-6-methyl-2-oxo-1,2,3,4-tetrahydropyrimidine-5-carboxylate]",323.15,12.84,++++ (>60% (++++)),–,–
"C/C(=N\NC(=O)c1cccnc1)c1ccc(O)cc1 [DCR45, (E)-N'-(1-(4-hydroxyphenyl)ethylidene)nicotinohydrazide]",31.25,15.55,++++ (>60% (++++)),–,–
"O=C1NC(c2ccc(F)cc2)c2c(ccc3ccccc23)O1 (centres unmarked) [DCR65, 1-(4-fluorophenyl)-1H,2H,3H-naphtho[1,2-e][1,3]oxazin-3-one]",53.27,12.63,++++ (>60% (++++)),–,–
"O=C(N/N=C/c1cccc(Br)c1)c1cccnc1 [DCR22, (E)-N'-(3-bromobenzylidene)nicotinohydrazide]",15.6,19.28,++++ (>60% (++++)),–,–
"Clc1ccc(C2c3c(ccc4ccccc34)Oc3ccc4ccccc4c32)cc1 [DCR115, 2‐(4‐chlorophenyl)‐13‐oxapentacyclo[12.8.0.0³,¹².0⁴,⁹.0¹⁷,²²]docosa‐1(14),3,5,7,9,11,15,17(22),18,20‐decaene]",125,17.1,++++ (>60% (++++)),–,–
"CCOc1ccc(C2NC(=O)NC(C)=C2C(=O)OCCN(C)C)cc1 (centres unmarked) [DCR72, 2-(dimethylamino)ethyl 4-(4-ethoxyphenyl)-6-methyl-2-oxo-1,2,3,4-tetrahydropyrimidine-5-carboxylate]",31.25,25.42,++++ (>60% (++++)),–,–
